Patent EP4203925B1, “CANNABINOID COMBINATIONS AND THEIR USE IN THE TREATMENT OF CANCER” (priority 2020, dated 2022)
“And” between values parts separate entries of the source, which are not always exact repeats. Equal values may be shown once. “Also recorded” adds a separate entry of the source. Read-outs that look alike come from different tables or passages of the source.

Assays:
[1] = tested on: breast cancer cell lines; assay: MTT cell viability / checkerboard assay, cell line not given; conditions: Homo sapiens, read-out: IC50 values
[2] = tested on: MDA-MB-231 cells; assay: MTT cell viability assay with Chou-Talalay median-effect / combination index analysis; conditions: for IC50 / IC75 / IC90: Homo sapiens, MDA-MB-231, 48 h; for IC50: read-out: Dm (µM) IC50; for IC75: read-out: Dm (µM) IC75; for IC90: read-out: Dm (µM) IC90
[3] = tested on: MCF-7 cells; assay: as above; conditions: for IC50 / IC75 / IC90: Homo sapiens; for IC75: read-out: Dm (µM) IC75; for IC90: read-out: Dm (µM) IC90
[4] = tested on: white blood cells; assay: Toxicity screening in white blood cells (MTT); type: cell-based, human; conditions: B6 (42 µM), C6 (43 µM), 24 hours
Protocol: MTT solution (5mg/ml, 20 µl) was added to existing media in the wells and the cells were incubated for 3 hours at 37 °C. After the 3 hours, the plate was centrifuged at 1000 x g for 10 minutes, the spent media removed and the formazan crystals solubilised in 100 µl DMSO. The plate was then shaken for 1 minute and the absorbance read at 550nm.
Blood samples were obtained from healthy volunteers (n=3, 16 ml/person) in ethylenediaminetetraacetic acid (EDTA) vacutainers. The samples were centrifuged at 500 x g for 10 minutes, the plasma (top layer) removed and the buffy coat collected. The buffy coat was then centrifuged at 2000 x g for 10 minutes to remove residual plasma while retaining the buffy coat. Lysis buffer (0.16M NH4Cl, 0.01 M KHCO3, 6 mM EDTA; pH 7.3) was added to the buffy coat in a 9:1 ratio (lysis buffer:buffy coat) and the mixture vortexed for 10 seconds, followed by a 10 minute incubation at room temperature. The sample was then centrifuged at 2000 x g for 10 minutes and the pellet retained (containing white blood cells). […] White blood cells were stained with trypan blue and counted using a haemocytometer. […]
The potential toxicity induced by the selected treatments (B6 and C6) were evaluated in two ways: 1) screening in the normal breast cells, MCF-10A and 2) determining the cytotoxicity to white blood cells isolated from human volunteers (Figure 14).

[5] = MCF7, 48 h, read-out: Dm (µM) IC50
[6] = MCF7, read-out: Required concentration of cannabinoids: Individual

SMILES	IC50 [1] [µM]	IC50 [2] [µM]	IC75 [2] [µM]	IC90 [2] [µM]	IC50 [3, 5] [µM]	IC75 ([3]; MCF7, 48 h) [µM]	IC90 ([3]; MCF7, 48 h) [µM]	IC50 [3, 6] [µM]	Dm (µM) IC75 [2] [µM]	Dm (µM) IC75 [3] [µM]	Required concentration of cannabinoids: Individual [3]	growth inhibition / cytotoxicity [4]
CCCCCc1cc(O)c2c(c1)OC(C)(C)c1ccc(C)cc1-2 [CBN, cannabinol]	25	22.5	25.7	29.3	23.4	26.6	30.2	23.4				
CCCCCc1cc(O)c2c(c1)OC(C)(C)[C@@H]1CCC(C)=C[C@@H]21 [THC, Δ^9-tetrahydrocannabinol]	32	30		49	32.2		57.7	32.6	38.33	43.11	39.23 µM (2×) and 47.24 µM (2×)	
CC[C@@]1(O)C(=O)OCc2c1cc1n(c2=O)Cc2cc3ccccc3nc2-1 [camptothecin]												lack of growth inhibition; also recorded: limited cytotoxicity
C=C(C)[C@@H]1CCC(C)=C[C@H]1c1c(O)cc(CCCCC)cc1O [CBD, cannabidiol]	19	14.7	26.4	47.4	20.6	30.2	44.4	20.6				
CCCCCc1cc(O)c(C/C=C(\C)CCC=C(C)C)c(O)c1 [CBG, cannabigerol]	30	24.9	28.1	31.8	26.9	33	40.5	26.9				
